target: recombinant human HPK1 (Homo sapiens (Human), UniProt Q92918); test: HPK1 kinase assay (ADP-Glo); assay type: biochemical; conditions: 25 μM ATP, MBP substrate
Experimental: HPK1 kinase activity was measured by Promega's ADP-Glo™ kinase assay. In this assay, 5 ng of recombinant human HPK1 (signalchem) is incubated with 5 μL of compounds (0.5% DMSO), 5 μL of MBP (0.5 μg/μl) and 5 μL of ATP (25 μM) in buffer (40 mM Tris, 7.5; 20 mM MgCl2; 0.1 mg/ml BSA; 5 μM DTT). The assay was started by incubating the reaction mixture in a 96-well plate at 30′ C for 40 minutes. After the incubation, 25 uL ADP-Glo reagent was added and the reaction was incubated at room temperature for 40-min to stop the reaction and degrade residual ATP. The ADP product was then converted to ATP by adding 50 uL per well of detection reagent. Luminescence was detected after 30-min room temperature incubation with the Molecular device I3X plate reader. The IC50 values were calculated from a series of percent inhibition values determined at a range of inhibitor concentration using software routines as implemented in the GraphPad Prism 7 software and SigmaPlot13.0.

Chain of recombinant human HPK1 (Q92918 whole entry): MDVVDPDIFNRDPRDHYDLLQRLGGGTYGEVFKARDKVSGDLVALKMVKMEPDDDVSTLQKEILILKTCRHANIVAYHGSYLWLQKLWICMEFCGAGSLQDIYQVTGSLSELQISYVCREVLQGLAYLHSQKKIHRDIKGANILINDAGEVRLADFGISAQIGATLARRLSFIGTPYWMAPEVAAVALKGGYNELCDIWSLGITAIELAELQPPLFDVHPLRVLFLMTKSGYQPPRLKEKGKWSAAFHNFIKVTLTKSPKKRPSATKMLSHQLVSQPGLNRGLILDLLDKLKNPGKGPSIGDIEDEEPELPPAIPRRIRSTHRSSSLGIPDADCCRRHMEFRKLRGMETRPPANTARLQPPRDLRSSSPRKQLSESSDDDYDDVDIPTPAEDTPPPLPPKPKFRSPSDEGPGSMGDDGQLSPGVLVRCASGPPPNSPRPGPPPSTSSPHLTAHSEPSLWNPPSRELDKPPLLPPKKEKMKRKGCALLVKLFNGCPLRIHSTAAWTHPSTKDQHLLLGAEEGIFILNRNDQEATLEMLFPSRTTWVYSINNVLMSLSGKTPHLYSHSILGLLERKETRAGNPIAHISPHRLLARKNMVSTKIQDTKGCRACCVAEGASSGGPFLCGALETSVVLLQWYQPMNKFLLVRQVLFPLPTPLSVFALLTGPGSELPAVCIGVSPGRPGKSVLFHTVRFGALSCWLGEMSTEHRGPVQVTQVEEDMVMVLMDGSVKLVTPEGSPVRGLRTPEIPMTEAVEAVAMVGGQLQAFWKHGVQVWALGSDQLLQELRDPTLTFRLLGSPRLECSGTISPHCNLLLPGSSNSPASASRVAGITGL

| IC50 [nM] | Compound |
| --- | --- |
| < 100 | CN(C)c1c(F)cc(-c2ccn3nc(NC(=O)[C@@H]4C[C@@H]4F)cc3c2)c2cn[nH]c12 [Example 583, (1S,2S)-N-(5-(7-(dimethylamino)-6-fluoro-1H-indazol-4-yl)pyrazolo[1,5-a]pyridin-2-yl)-2-fluorocyclopropane-1-carboxamide] |
| < 100 | C[C@@H]1[C@H](C(=O)Nc2cc3cc(-c4c(Cl)c(F)c(N(C)C)c5[nH]ncc45)ccn3n2)[C@H]1c1cnn(C)c1 [Example 648, (1S,2S,3S)-N-(5-(5-chloro-7-(dimethylamino)-6-fluoro-1H-indazol-4-yl)pyrazolo[1,5-a]pyridin-2-yl)-2-methyl-3-(1-methyl-1H-pyrazol-4-yl)cyclopropane-1-carboxamide] |
| < 100 | O=C(Nc1cc2cc(-c3c(Cl)c(F)c(Br)c4[nH]ncc34)ccn2n1)[C@@H]1C[C@@H]1F [Example 480, (1S,2S)-N-(5-(7-bromo-5-chloro-6-fluoro-1H-indazol-4-yl)pyrazolo[1,5-a]pyridin-2-yl)-2-fluorocyclopropane-1-carboxamide] |
| < 100 | Cc1c(F)cc2[nH]nc(Cl)c2c1-c1ccn2nc(NC(=O)[C@@H]3C[C@@H]3F)cc2c1 [Example 469, (1S,2S)-N-(5-(3-chloro-6-fluoro-5-methyl-1H-indazol-4-yl)pyrazolo[1,5-a]pyridin-2-yl)-2-fluorocyclopropane-1-carboxamide] |
| 101 to 500 | O=C(Nc1cc2cc(-c3c(Cl)c(F)c(N4CCNCC4)c4[nH]ncc34)ccn2n1)[C@@H]1C[C@@H]1F [Example 500, (1S,2S)-N-(5-(5-chloro-6-fluoro-7-(piperazin-1-yl)-1H-indazol-4-yl)pyrazolo[1,5-a]pyridin-2-yl)-2-fluorocyclopropane-1-carboxamide] |
| < 100 | CC(c1c(F)c(Cl)c(-c2ccc3nc(NC(=O)[C@@H]4C[C@@H]4F)cn3c2)c2cn[nH]c12)S(C)(=O)=O (stereo partly drawn) [Example 444, (1S,2S)-N-(6-(5-chloro-6-fluoro-7-(1-(methylsulfonyl)ethyl)-1H-indazol-4-yl)imidazo[1,2-a]pyridin-2-yl)-2-fluorocyclopropane-1-carboxamide] |
| < 100 | CSc1c(F)cc2[nH]ncc2c1-c1ccn2nc(NC(=O)[C@H]3C[C@H]3F)cc2c1 [Example 573, (1R,2R)-2-fluoro-N-(5-(6-fluoro-5-(methylthio)-1H-indazol-4-yl)pyrazolo[1,5-a]pyridin-2-yl)cyclopropane-1-carboxamide] |
| < 100 | COC(=O)c1c(F)c(C)c(-c2ccn3nc(NC(=O)[C@@H]4C[C@@H]4F)cc3c2)c2cn[nH]c12 [Example 548, methyl 6-fluoro-4-(2-((1S,2S)-2-fluorocyclopropane-1-carboxamido)pyrazolo[1,5-a]pyridin-5-yl)-5-methyl-1H-indazole-7-carboxylate] |
| < 100 | Cc1c(F)c(OCCNC(N)=O)c2[nH]ncc2c1-c1ccn2nc(NC(=O)[C@@H]3C[C@@H]3F)cc2c1 [Example 544, (1S,2S)-2-fluoro-N-(5-(6-fluoro-5-methyl-7-(2-ureidoethoxy)-1H-indazol-4-yl)pyrazolo[1,5-a]pyridin-2-yl)cyclopropane-1-carboxamide] |

The next lines start with the compound.

| Compound | IC50 [nM] |
| --- | --- |
| Cc1ccc2[nH]ncc2c1-c1ccc2nc(NC(=O)C3CC3CO)cn2c1 (centres unmarked) [Example 278, 2-(hydroxymethyl)-N-(6-(5-methyl-1H-indazol-4-yl)imidazo[1,2-a]pyridin-2-yl)cyclopropane-1-carboxamide] | > 1000 |
| Cc1ccc2[nH]ncc2c1-c1ccc2nc(NC(=O)C3CCC3)sc2c1 [Example 4, N-(6-(5-methyl-1H-indazol-4-yl)benzo[d]thiazol-2-yl)cyclobutanecarboxamide] | 501 to 1000 |
| C=Cc1c(F)c(C)c(-c2ccc3nc(NC(=O)[C@@H]4C[C@@H]4F)sc3c2)c2cn[nH]c12 [Example 62, (1S,2S)-2-fluoro-N-(6-(6-fluoro-5-methyl-7-vinyl-1H-indazol-4-yl)benzo[d]thiazol-2-yl)cyclopropane-1-carboxamide] | 101 to 500 |
| CN(Nc1c(F)c(Cl)c(-c2ccc3nc(NC(=O)[C@@H]4C[C@@H]4F)cn3c2)c2cn[nH]c12)C(=O)OC(C)(C)C [Example 309, tert-butyl 2-(5-chloro-6-fluoro-4-(2-((1S,2S)-2-fluorocyclopropane-1-carboxamido)imidazo[1,2-a]pyridin-6-yl)-1H-indazol-7-yl)-1-methylhydrazine-1-carboxylate] | < 100 |
| CSc1c(F)cc(-c2ccc3nc(NC(=O)[C@@H]4C[C@@H]4F)sc3c2)c2cn[nH]c12 [Example 141, (1S,2S)-2-fluoro-N-(6-(6-fluoro-7-(methylthio)-1H-indazol-4-yl)benzo[d]thiazol-2-yl)cyclopropane-1-carboxamide] | > 1000 |
| CN(CC1CNC1)c1c(F)c(Cl)c(-c2ccc3nc(NC(=O)[C@@H]4C[C@@H]4F)sc3c2)c2cn[nH]c12 [Example 94, (1S,2S)-N-(6-(7-((azetidin-3-ylmethyl)(methyl)amino)-5-chloro-6-fluoro-1H-indazol-4-yl)benzo[d]thiazol-2-yl)-2-fluorocyclopropanecarboxamide] | < 100 |
| O=C(Nc1nc2ccc(-c3c(Br)c(F)cc4[nH]ncc34)cc2s1)[C@@H]1C[C@@H]1F [Example 42, (1S,2S)-N-(6-(5-bromo-6-fluoro-1H-indazol-4-yl)benzo[d]thiazol-2-yl)-2-fluorocyclopropane-1-carboxamide] | 101 to 500 |
| CC(=O)c1c(F)c(C)c(-c2ccc3nc(NC(=O)[C@@H]4C[C@@H]4F)sc3c2)c2cn[nH]c12 [Example 131, (1S,2S)-N-(6-(7-acetyl-6-fluoro-5-methyl-1H-indazol-4-yl)benzo[d]thiazol-2-yl)-2-fluorocyclopropane-1-carboxamide] | 101 to 500 |
| CC(=O)N(C)c1c(F)c(Cl)c(-c2ccc3nc(NC(=O)[C@@H]4C[C@@H]4F)sc3n2)c2cn[nH]c12 [Example 189, (1S,2S)-N-(5-(5-chloro-6-fluoro-7-(N-methylacetamido)-1H-indazol-4-yl)thiazolo[5,4-b]pyridin-2-yl)-2-fluorocyclopropane-1-carboxamide] | < 100 |
| O=C(Nc1nc2ccc(-c3c(Cl)c(F)c(F)c4[nH]ncc34)cc2s1)[C@@H]1C[C@@H]1F [Example 126, (1S,2S)-N-(6-(5-chloro-6,7-difluoro-1H-indazol-4-yl)benzo[d]thiazol-2-yl)-2-fluorocyclopropane-1-carboxamide] | < 100 |
| CSc1c(F)cc(-c2ccc3nc(NC(=O)[C@@H]4C[C@@H]4F)cn3c2)c2cn[nH]c12 [Example 342, (1S,2S)-2-fluoro-N-(6-(6-fluoro-7-(methylthio)-1H-indazol-4-yl)imidazo[1,2-a]pyridin-2-yl)cyclopropane-1-carboxamide] | < 100 |
| Nc1c(Cl)cc2[nH]ncc2c1-c1ccc2nc(NC(=O)C3CC3)cn2c1 [Example 240, N-(6-(5-amino-6-chloro-1H-indazol-4-yl)imidazo[1,2-a]pyridin-2-yl)cyclopropanecarboxamide] | 501 to 1000 |
| COc1ccc2[nH]ncc2c1-c1ccc2nc(NC(=O)C3CC3)cn2c1 [Example 224, N-(6-(5-methoxy-1H-indazol-4-yl)imidazo[1,2-a]pyridin-2-yl)cyclopropanecarboxamide] | 101 to 500 |
| Cc1c(F)c(F)c2[nH]nc(F)c2c1-c1ccc2nc(NC(=O)[C@@H]3C[C@@H]3F)sc2c1 [Example 55, (1S,2S)-2-fluoro-N-(6-(3,6,7-trifluoro-5-methyl-1H-indazol-4-yl)benzo[d]thiazol-2-yl)cyclopropane-1-carboxamide] | 101 to 500 |
| CCN(C)C(=O)c1c(F)c(Cl)c(-c2ccc3nc(NC(=O)[C@@H]4C[C@@H]4F)cn3c2)c2cn[nH]c12 [Example 341, 5-chloro-N-ethyl-6-fluoro-4-(2-((1S,2S)-2-fluorocyclopropane-1-carboxamido)imidazo[1,2-a]pyridin-6-yl)-N-methyl-1H-indazole-7-carboxamide] | < 100 |
| COc1c(F)c(Cl)c(-c2ccc3nc(NC(=O)[C@@H]4C[C@@H]4F)cn3c2)c2cn[nH]c12 [Example 272, (1S,2S)-N-(6-(5-chloro-6-fluoro-7-methoxy-1H-indazol-4-yl)imidazo[1,2-a]pyridin-2-yl)-2-fluorocyclopropane-1-carboxamide] | < 100 |
| O=C(Nc1cn2cc(-c3c(Cl)c(F)c(O)c4[nH]ncc34)ccc2n1)[C@@H]1C[C@@H]1F [Example 295, (1S,2S)-N-(6-(5-chloro-6-fluoro-7-hydroxy-1H-indazol-4-yl)imidazo[1,2-a]pyridin-2-yl)-2-fluorocyclopropane-1-carboxamide] | < 100 |
| CN(C)C(=O)c1c(F)cc2[nH]ncc2c1-c1ccc2nc(NC(=O)[C@@H]3C[C@@H]3F)cn2c1 [Example 355, 6-fluoro-4-(2-((1S,2S)-2-fluorocyclopropane-1-carboxamido)imidazo[1,2-a]pyridin-6-yl)-N,N-dimethyl-1H-indazole-5-carboxamide] | > 1000 |
| CCc1c(F)c(C(F)(F)F)c2[nH]ncc2c1-c1ccc2nc(NC(=O)[C@@H]3C[C@@H]3F)sc2n1 [Example 210, (1S,2S)-N-(5-(5-ethyl-6-fluoro-7-(trifluoromethyl)-1H-indazol-4-yl)thiazolo[5,4-b]pyridin-2-yl)-2-fluorocyclopropane-1-carboxamide] | < 100 |
| O=C(O)NC1CN(c2c(F)c(Cl)c(-c3ccc4nc(NC(=O)[C@@H]5C[C@@H]5F)sc4c3)c3cn[nH]c23)C1 [Example 88, (1-(5-chloro-6-fluoro-4-(2-((1S,2S)-2-fluorocyclopropane-1-carboxamido)benzo[d]thiazol-6-yl)-1H-indazol-7-yl)azetidin-3-yl)carbamic acid] | < 100 |

Source: US11649255B2, “Indazoles as hematopoietic progenitor kinase 1 (HPK1) inhibitors and methods using same” (1st Biotherapeutics, Inc., priority 2020, dated 2023)
